PubChem BioAssay AID1188 (EPA DSSTox, 2008)
The source made the active and inactive calls.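 Rule for the calls: active = a concentration killing half the fathead minnows in the acute test was determined; inconclusive = some fish died but not half at top dose; inactive = no fish died even at top dose.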

Tested on: Fathead minnow (Pimephales promelas) acute toxicity, lethality
Assay: DSSTox (EPAFHM) EPA Fathead Minnow Acute Toxicity
In short: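 Activity score is an integer 1–100 scaling of log10(1/LC50 in mmol) between dataset minimum and maximum, highest potency = 100. Underlying LC50 values (mg) come from the U.S. EPA MED database.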

SMILES | Potency | outcome
CCC(C)N (configuration not stated) | 3760 µM | 
O=CN(c1ccccc1)c1ccccc1 | 154 µM | 
OCCCc1cccnc1 | 1090 µM | 
O[C@@H]1CCCC[C@H]1c1ccccc1 | 252 µM | 
N#CCC#N | 8.48 µM | 
C=C(C)C(=O)OCC1CCCO1 (configuration not stated) | 204 µM | 
CC#CCO | 144 µM | 
CC(C)=CC=C(C)C | 34.3 µM | 
CCCCCCC1CCC(=O)O1 (configuration not stated) | 106 µM | 
COc1cccc(C=O)c1O | 15.8 µM | 
CC(C)c1ccc(C=O)cc1 | 44.7 µM | 
CC(=O)Nc1ccc(O)cc1 | 5390 µM | 
CC(=O)OC(C)(C)C | 2820 µM | 
CCOC(=O)C(Cl)C(=O)OCC | 4.88 µM | 
CC(=O)Nc1ccccc1O | 179 µM | 
C=C(C)C(=O)OCCOCC | 175 µM | 
O=[N+]([O-])c1cccc(Cl)c1 | 119 µM | 
COC(=O)c1ccc([N+](=O)[O-])cc1 | 131 µM | 
Oc1cc(Cl)c(Cl)cc1O | 4.97 µM | 
CCN(CC)c1ccc(C=O)cc1 | 135 µM | 
NCCCN1CCN(CCCN)CC1 | 15500 µM | 
CC1(C)OCC(CO)O1 (configuration not stated) | 126000 µM | 
CC/C=C/CCO | 2710 µM | 
CNC(=O)O/N=C/C(C)(C)SC | 4.52 µM | 
c1ccc2c(c1)CCO2 | 680 µM | 
CC(O)CC(C)(C)O (configuration not stated) | 90500 µM | 

SMILES | Potency | outcome
c1ccncc1 | 1260 µM | 
CCc1cccc(CC)c1N(COC)C(=O)CCl | 18.5 µM | 
Clc1nc(Cl)c(Cl)c(Cl)c1Cl | 1.87 µM | 
CCC#N | 27600 µM | 
c1ccc(CC2=NCCN2)cc1 | 1800 µM | 
CCCCCCCCCCCN | 1.23 µM | 
COP(=S)(OC)SCn1nnc2ccccc2c1=O | 0.202 µM | 
CC(C)(C)SSC(C)(C)C | 7.68 µM | 
CCCCOC(=O)/C=C/C(=O)OCCCC | 2.76 µM | 
NC(=O)c1ccccc1O | 736 µM | 
CCCCCCCCOc1ccccc1NC(C)=O | 1.71 µM | 
CCOC(=O)CCCCCCCCC(=O)OCC | 10.5 µM | 
CCCCCCCCOC(=O)c1cccc(C(=O)OCCCCCCCC)c1 |  | inactive; moa not determined either due to lack of toxicity at saturation or late test res
CCCCCC(=O)O | 2760 µM | 
O[C@@H]1C[C@H]2CC[C@@H]1C2 | 2030 µM | 
O=Cc1ccccc1F | 10.9 µM | 
Oc1cccnc1Cl | 4800 µM | 
C1CCOC1 | 30000 µM | 
CN1CCNCC1 | 23000 µM | 
CCCCN(C=O)CCCC | 568 µM | 
Oc1cccc2ccccc12 | 32.1 µM | 
CC(C)(C)CN | 5450 µM | 
C=CC(=O)OCCO | 41.4 µM | 
CCN(CC)C1CCCCC1 | 138 µM | 
CC(C)C(C)N (configuration not stated) | 3260 µM | 
COc1ccccc1C(N)=O | 794 µM | 

SMILES | Potency | outcome
CC(C)c1ccccc1 | 52.6 µM | 
ON=C1CCCCC1 | 1840 µM | 
O=C1NS(=O)(=O)c2ccccc21 | 82000 µM | 
Brc1ccsc1 | 38 µM | 
CCOc1cc(C=O)ccc1O | 527 µM | 
COc1cc(OC)c(OC)cc1C=O | 252 µM | 
O=C(c1ccccc1)c1ccccc1 | 80.7 µM | 
Nc1ccc(F)cc1C(F)(F)F | 165 µM | 
CC(C)=O | 123000 µM | 
Cc1cc(O)ccc1Cl | 38.4 µM | 
CCOc1ccc(N)c([N+](=O)[O-])c1 | 143 µM | 
CCCCSCCCC | 24.5 µM | 
CCN1C(=O)CC(=O)N(CC)C1=S | 22500 µM | 
CCCCCCCCCCCC(N)=O |  | inactive; moa not determined either due to lack of toxicity at saturation or late test res
Cc1ccc(C)c(C)c1 | 64.2 µM | 
OCC(F)(F)F | 1190 µM | 
CCCC(C)=O | 14400 µM | 
C=CC(C)(O)CC/C=C(\C)CCC=C(C)C (configuration not stated) | 6.43 µM | 
COc1cccc(OC)c1C | 133 µM | 
OCCN1CCOCC1 | 20700 µM | 
CC(C)SSC(C)C | 55.3 µM | 
CCCCCCCCCCCC#N | 2.37 µM | 
BrCC1CCCCO1 (configuration not stated) | 1150 µM | 
CC(=O)c1ccc(Cl)c([N+](=O)[O-])c1 | 27.6 µM | 
O=[N+]([O-])c1ccc(Oc2ccc(Br)cc2)c([N+](=O)[O-])c1 |  | inactive; moa not determined either due to lack of toxicity at saturation or late test res
CC1(C)[C@@H]2CC[C@@]1(C)C(=O)[C@H]2Br | 296 µM | 

SMILES | Potency | outcome
CCN(CC)c1ccc(C=O)c(O)c1 | 27.7 µM | 
Cc1cccc(Cl)c1C#N | 99.6 µM | 
C#CC1(O)CCCCC1 | 2060 µM | 
CC(=O)CC(C)C | 5210 µM | 
NCCN | 3660 µM | 
CC(C)(C)CC(C)(C)N | 190 µM | 
Clc1ccccc1Cl | 64 µM | 
CC(=O)C(C)(C)C | 869 µM | 
Cc1cccnc1 | 1550 µM | 
CN(C)CCCCl | 841 µM | 
N#Cc1cc(I)c(O)c(I)c1 | 18.3 µM | 
CCOP(=O)(Cc1ccccc1)OCC | 1470 µM | 
CCOC(C)=O | 2610 µM | 
CCCCCCCCCCCCCO |  | inactive; moa not determined either due to lack of toxicity at saturation or late test res
CCCCCCO | 956 µM | 
COc1ccc(OC)c(C(=O)CBr)c1 | 2.55 µM | 
Nc1ccc(Br)cc1 | 276 µM | 
CCCCOC(=O)c1ccccc1C(=O)OCCCC | 3.59 µM | 
Cc1ccc(N)cc1 | 1490 µM | 
CCN(CC)c1ccccc1 | 110 µM | 
Cc1ccc(N)c(Cl)c1 | 254 µM | 
OCCN(CCO)c1ccccc1 | 4060 µM | 
Cc1cc2nc3c(=O)[nH]c(=O)nc-3n(C[C@H](O)[C@H](O)[C@H](O)CO)c2cc1C |  | inactive; moa not determined either due to lack of toxicity at saturation or late test res
COc1cc(O)c(C=O)c(OC)c1 | 14.7 µM | 
ClC=C(Cl)Cl | 336 µM | 
NC(=O)c1ccc([N+](=O)[O-])cc1 | 801 µM | 

SMILES | Potency | outcome
O=[N+]([O-])c1ncccc1O | 1190 µM | 
C=C(C)C(=O)OCc1ccccc1 | 26.5 µM | 
CC(C)(O)C(F)(F)C(F)F | 3640 µM | 
CC(C)[C@H](C(=O)OC(C#N)c1cccc(Oc2ccccc2)c1)c1ccc(OC(F)F)cc1 (some centres not stated) | 0.000421 µM | 
ClCCCCCCl | 179 µM | 
OCC(Cl)(Cl)Cl | 2000 µM | 
CCCCCCOc1ccc(C=O)cc1OC | 11.3 µM | 
Cc1ccc(O)cc1 | 153 µM | 
CC(C)CO | 19300 µM | 
Cc1ccc(O)c(C)c1 | 136 µM | 
O=[N+]([O-])c1ccc(O)cc1 | 322 µM | 
N#Cc1cc(Cl)c(O)c(Cl)c1 | 129 µM | 
Cc1ccccc1C#N | 382 µM | 
O=Cc1cccc(C(F)(F)F)c1 | 5.31 µM | 
Cn1c(=O)c2c(ncn2C)n(C)c1=O | 778 µM | 
Oc1cc(Cl)c(Cl)c(Cl)c1Cl | 1.77 µM | 
Oc1c(Cl)cc(Cl)c(Cl)c1Cl | 4.44 µM | 
IC(I)I | 7.42 µM | 
Nc1ccc(O)c([N+](=O)[O-])c1 | 235 µM | 
Cc1cccc(OP(=O)(Oc2cccc(C)c2C)Oc2cccc(C)c2C)c1C |  | inactive; moa not determined either due to lack of toxicity at saturation or late test res
Brc1ccccc1Br | 17.2 µM | 
O=P(c1ccccc1)(c1ccccc1)c1ccccc1 | 193 µM | 
O=Cc1ccccc1 | 93 µM | 
OCC#CCO | 623 µM | 
CC(=O)C(C)C | 10000 µM | 
O=C(O)c1cccc(C(=O)O)n1 | 1930 µM | 

SMILES | Potency | outcome
ClCCCCl | 982 µM | 
c1ccc(-c2ccc(-c3ccccc3)o2)cc1 |  | inactive; moa not determined either due to lack of toxicity at saturation or late test res
Cc1cccc([N+](=O)[O-])c1 | 187 µM | 
C#CCN(CC#C)CC#C | 2260 µM | 
CN(C)c1ccc(C=O)cc1 | 306 µM | 
CC[N+](CC)(CC)Cc1ccccc1 | 707 µM | 
C=C[C@@](C)(O)CC[C@H]1C(=C)CC[C@H]2C(C)(C)CCC[C@]12C | 0.413 µM | 
Nc1ccc(F)c(C(F)(F)F)c1 | 168 µM | 
CC1(N)CCC(C(C)(C)N)CC1 (configuration not stated) | 383 µM | 
C#CCC(C)O (configuration not stated) | 417 µM | 
ClC(Cl)=C(Cl)c1c(Cl)c(Cl)c(Cl)c(Cl)c1Cl |  | inactive; moa not determined either due to lack of toxicity at saturation or late test res
O=Cc1ccccc1[N+](=O)[O-] | 95.3 µM | 
CC(O)CN (configuration not stated) | 33600 µM | 
CCCCC(=O)CCCC | 218 µM | 
CCCCCCC(=O)CCCCCC |  | inactive; moa not determined either due to lack of toxicity at saturation or late test res
Oc1ccc(N=Nc2ccccc2)cc1 | 6 µM | 
CCCCCCCCCCC(C)=O | 6.4 µM | 
Oc1c(O)c(Cl)c(Cl)c(Cl)c1Cl | 5.12 µM | 
COc1ccc(C(C)=O)c(O)c1 | 418 µM | 
N#Cc1ccccn1 | 6970 µM | 
O=Cc1cc(Cl)ccc1O | 4.92 µM | 
CCCCCOCCCCC | 19.8 µM | 
N#CCCCCCCC#N | 3880 µM | 
Oc1ccccc1 | 347 µM | 
Oc1cccnc1Br | 2700 µM | 
Nc1ccc(Br)cn1 | 1020 µM | 

SMILES | Potency | outcome
CCC(=O)c1ccc(N)cc1 | 979 µM | 
CCCCCCCO | 297 µM | 
C=CCC(O)C=C (configuration not stated) | 388 µM | 
OCCCl | 667 µM | 
CC(=O)c1cccc(N)c1 | 2830 µM | 
CCOP(=S)(Oc1ccc([N+](=O)[O-])cc1)c1ccccc1 (configuration not stated) | 0.243 µM | 
CCCCCCCC/C=C\CCCCCCCCO |  | inactive; moa not determined either due to lack of toxicity at saturation or late test res
CNC(=O)Oc1ccccc1OC(C)C | 42.1 µM | 
C1COCCO1 | 117000 µM | 
CO |  | active; baseline narcosis
C=CC(=O)OCC(C)O (configuration not stated) | 26 µM | 
COc1ccc(C=O)c(OC)c1 | 121 µM | 
O=C1CCCCC1 | 6330 µM | 
Cc1c(Cl)cccc1NC=O | 275 µM | 
CC1CNCC(C)O1 (configuration not stated) | 3360 µM | 
CCCCCCBr | 20.9 µM | 
O=C(c1ccccc1)c1ccncc1 | 562 µM | 
CCCCCCC(C)=O | 281 µM | 
CCOP(=S)(OCC)SCSC(C)(C)C | 0.0461 µM | 
C/C=N/O | 1290 µM | 
Oc1c(Cl)cc(Cl)c(Cl)c1Cc1c(O)c(Cl)cc(Cl)c1Cl | 0.0516 µM | 
